According to patent US12692253B2, “Antimicrobial compounds and methods” (Curza Global, LLC, priority 2019, dated 2026):
Read-outs that look alike come from different tables or passages of the source.

Assays:
[1] = molecular target: Rabbit Reticulocyte Lysate (eukaryotic protein synthesis); test: Rabbit reticulocyte lysate luciferase assay (inhibition of eukaryotic protein synthesis); format: biochemical; details: read-out: Rabbit reticulocyte IC50 (μM/% inhib.)
In short: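 Percent inhibition calculated against water-only controls from luminescence; background set by lysate lacking RNA. Compounds, 8-point 2-fold titration, incubated 90 minutes at 30° C with nuclease-treated rabbit reticulocyte lysate programmed with luciferase control RNA plus complete amino acids.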

[2] = tested on: E. coli S30 extract (bacterial protein synthesis); test: E. coli S30 extract coupled transcription-translation luciferase assay (inhibition of bacterial protein synthesis); format: biochemical; details: read-out: S30 IC50 (μM/% inhib.)
In short: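 Luciferase luminescence quantified inhibition of protein synthesis relative to water controls, with no-DNA reactions giving background. Compounds in 2-fold serial dilution (8 levels) were incubated 1 hour at 37 °C with E. coli S30 extract, amino acids and pBESTluc plasmid, then chilled to stop.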

[3] = tested on: E. coli (Ec); test: Broth microdilution minimum inhibitory concentration (MIC), CLSI; format: cell-based; details: for MIC: Escherichia coli, read-out: E. coli + bicarb MIC
In short: (§1)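 Modified CLSI method: CAMHB (± bicarbonate 6.25/25 mM or 0-50% human serum), 8-point two-fold series, triplicates, 5×10^4 CFU/well.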

[4] = tested on: P. aeruginosa (Pa); test: as above; format: cell-based; details: for MIC: Pseudomonas aeruginosa, read-out: Pa MIC + bicarb
In short: as §1

[5] = tested on: S. aureus (Sa); test: as above; format: cell-based; details: for MIC: Staphylococcus aureus, read-out: Sa + bicarb MIC
In short: as §1

[6] = tested on: E. faecalis (Ef); test: as above; format: cell-based; details: for MIC: Enterococcus faecalis, read-out: Ef + bicarb MIC
In short: as §1

[7] = tested on: A. baumannn (Ab); test: as above; format: cell-based; details: for MIC: read-out: Ab + bicarb MIC
In short: as §1

[8] = class by IC50 or % inhibition @ 1 μM
[9] = growth medium supplemented with sodium bicarbonate
[10] = growth medium with sodium bicarbonate
[11] = A. baumannn, growth medium with sodium bicarbonate

CCC(Cc1ccc(-n2ccc(NC(=O)N3CCN(C(=O)C(C)(C)N)CC3)nc2=O)cc1F)N1C[C@@H]2[C@@H](CN)[C@@H]2C1 (stereo partly shown) [Compound 154]
IC50 [1, 8]: ≥ 1 µM
IC50 [2, 8]: < 0.5 µM
MIC [3, 9]: < 8 mg/L
MIC [4, 9]: < 8 mg/L
MIC [5, 9]: < 8 mg/L
MIC [6, 9]: < 8 mg/L
MIC ([7]; Acinetobacter baumannii): < 8 mg/L

C[C@@H](Cc1ccc(-n2ccc(NC(=O)N3CCN(C(=O)C(C)(C)N)CC3)nc2=O)cc1)N1C[C@@H]2[C@@H](CN)[C@@H]2C1 [Compound 141]
IC50 [1, 8]: ≥ 1 µM
IC50 [2, 8]: < 0.5 µM
MIC [3, 9]: < 8 mg/L
MIC [4, 9]: < 8 mg/L
MIC [5, 9]: < 8 mg/L
MIC [6, 9]: < 8 mg/L
MIC ([7]; Acinetobacter baumannii): 8 to 32 mg/L

CC(Cc1ccc(-n2ccc(NC(=O)N3CCN(C(=O)[C@@H]4CCCN4)CC3)nc2=O)cc1)N1C[C@@H]2[C@@H](CN)[C@@H]2C1 (stereo partly shown) [Compound 228]
IC50 ([1]; % inhibition @ 1 μM): ≥ 1 µM
IC50 ([2]; % inhibition @ 1 μM): ≥ 1 µM
MIC [3, 10]: < 8 mg/L
MIC [4, 10]: > 32 mg/L
MIC [5, 10]: < 8 mg/L
MIC [6, 10]: 8 to 32 mg/L
MIC [7, 11]: > 32 mg/L

CC(Cc1ccc(-n2ccc(NC(=O)N3CCN(C(=O)C(C)(C)N)CC3)nc2=O)cc1)N1C[C@@H]2[C@H](C1)[C@H]2C(C)(C)N (stereo partly shown) [Compound 205]
IC50 ([1]; % inhibition @ 1 μM): ≥ 1 µM
IC50 ([2]; % inhibition @ 1 μM): ≥ 1 µM
MIC [3, 10]: 8 to 32 mg/L
MIC [4, 10]: > 32 mg/L
MIC [5, 10]: 8 to 32 mg/L
MIC [6, 10]: > 32 mg/L
MIC [7, 11]: > 32 mg/L

CC(C)(N)C(=O)N1CCN(C(=O)Nc2ccn(-c3ccc(CCCN4C[C@@H]5[C@@H](N)[C@@H]5C4)cc3)c(=O)n2)CC1 [Compound 179]
IC50 ([1]; % inhibition @ 1 μM): ≥ 1 µM
IC50 ([2]; % inhibition @ 1 μM): ≥ 1 µM
MIC [3, 10]: 8 to 32 mg/L
MIC [4, 10]: > 32 mg/L
MIC [5, 10]: < 8 mg/L
MIC [6, 10]: > 32 mg/L
MIC [7, 11]: > 32 mg/L

CCN(C(C)Cc1ccc(-n2ccc(NC(=O)N3CCN(C(=O)C(C)(C)N)CC3)nc2=O)cc1)C12CC(N)(C1)C2 (stereo not shown) [Compound 198]
IC50 ([1]; % inhibition @ 1 μM): ≥ 1 µM
IC50 ([2]; % inhibition @ 1 μM): ≥ 1 µM
MIC [3, 10]: 8 to 32 mg/L
MIC [4, 10]: > 32 mg/L
MIC [5, 10]: 8 to 32 mg/L
MIC [6, 10]: > 32 mg/L
MIC [7, 11]: > 32 mg/L

NC[C@@H]1CCN(C(=O)Nc2ccn(-c3ccc(CN4C[C@@H]5[C@@H](N)[C@@H]5C4)cc3)c(=O)n2)C1 [Compound 251]
IC50 ([1]; % inhibition @ 1 μM): ≥ 1 µM
IC50 ([2]; % inhibition @ 1 μM): ≥ 1 µM
MIC [3, 10]: > 32 mg/L
MIC [4, 10]: > 32 mg/L
MIC [5, 10]: > 32 mg/L
MIC [6, 10]: > 32 mg/L
MIC [7, 11]: > 32 mg/L

CCCC(Cc1ccc(-n2ccc(NC(=O)N3CCN(C(=O)C(C)(C)N)CC3)nc2=O)cc1F)N1C[C@@H]2[C@@H](CN)[C@@H]2C1 (stereo partly shown) [Compound 153]
IC50 [1, 8]: ≥ 1 µM
IC50 [2, 8]: < 0.5 µM
MIC [3, 9]: < 8 mg/L
MIC [4, 9]: 8 to 32 mg/L
MIC [5, 9]: < 8 mg/L
MIC [6, 9]: < 8 mg/L
MIC ([7]; Acinetobacter baumannii): < 8 mg/L

NC[C@@H]1[C@H]2CN(CCc3ccc(-n4ccc(NC(=O)N5CC6(CCC6N)C5)nc4=O)cc3)C[C@@H]12 (stereo partly shown) [Compound 148]
IC50 [1, 8]: ≥ 1 µM
IC50 [2, 8]: ≥ 1 µM
MIC [3, 9]: > 32 mg/L
MIC [4, 9]: > 32 mg/L
MIC [5, 9]: > 32 mg/L
MIC [6, 9]: > 32 mg/L
MIC ([7]; Acinetobacter baumannii): > 32 mg/L

CC(C)CC(Cc1ccc(-n2ccc(NC(=O)N3CCN(C(=O)C(C)(C)N)CC3)nc2=O)cc1)N1C[C@@H]2[C@@H](CN)[C@@H]2C1 (stereo partly shown) [Compound 156]
IC50 [1, 8]: ≥ 1 µM
IC50 [2, 8]: < 0.5 µM
MIC [3, 9]: < 8 mg/L
MIC [4, 9]: < 8 mg/L
MIC [5, 9]: < 8 mg/L
MIC [6, 9]: < 8 mg/L
MIC ([7]; Acinetobacter baumannii): < 8 mg/L

CC(Cc1ccc(-n2ccc(NC(=O)N3CCN(C(=O)C(C)(C)N)CC3)nc2=O)cc1)N(C)C12CC(N)(C1)C2 (stereo not shown) [Compound 199]
IC50 ([1]; % inhibition @ 1 μM): ≥ 1 µM
IC50 ([2]; % inhibition @ 1 μM): ≥ 1 µM
MIC [3, 10]: 8 to 32 mg/L
MIC [4, 10]: > 32 mg/L
MIC [5, 10]: 8 to 32 mg/L
MIC [6, 10]: > 32 mg/L
MIC [7, 11]: > 32 mg/L

CC(C)C(Cc1ccc(-n2ccc(NC(=O)N3CCN(C(=O)C(C)(C)N)CC3)nc2=O)cc1)N1C[C@@H]2[C@@H](CN)[C@@H]2C1 (stereo partly shown) [Compound 155]
IC50 [1, 8]: ≥ 1 µM
IC50 [2, 8]: < 0.5 µM
MIC [3, 9]: < 8 mg/L
MIC [4, 9]: < 8 mg/L
MIC [5, 9]: < 8 mg/L
MIC [6, 9]: < 8 mg/L
MIC ([7]; Acinetobacter baumannii): < 8 mg/L

CC(Cc1ccc(-n2ccc(NC(=O)N3CCN(C(=O)C[C@H](C)N)CC3)nc2=O)cc1)N1C[C@@H]2[C@@H](CN)[C@@H]2C1 (stereo partly shown) [Compound 231]
IC50 ([1]; % inhibition @ 1 μM): ≥ 1 µM
IC50 ([2]; % inhibition @ 1 μM): ≥ 1 µM
MIC [3, 10]: < 8 mg/L
MIC [4, 10]: > 32 mg/L
MIC [5, 10]: < 8 mg/L
MIC [6, 10]: > 32 mg/L
MIC [7, 11]: > 32 mg/L

CC(Cc1ccc(-n2ccc(NC(=O)N3CCN(C(=O)C(C)(C)N)CC3)nc2=O)cc1)N1CC2CCC(N)CC2C1 (stereo not shown) [Compound 215]
IC50 ([1]; % inhibition @ 1 μM): ≥ 1 µM
IC50 ([2]; % inhibition @ 1 μM): < 0.5 µM
MIC [3, 10]: < 8 mg/L
MIC [4, 10]: > 32 mg/L
MIC [5, 10]: < 8 mg/L
Ef + bicarb MIC [6, 10]: ++ (An MIC value (μg/mL) that is 8 μg/mL or greater and less than 32 μg/mL)
MIC [7, 11]: > 32 mg/L

CC(C)(N)C(=O)N1CCN(C(=O)Nc2ccn(-c3cccc(CCN4CC5(CC(N)C5)C4)c3)c(=O)n2)CC1 [Compound 109]
IC50 [1, 8]: ≥ 1 µM
IC50 [2, 8]: < 0.5 µM
MIC [3, 9]: < 8 mg/L
MIC [4, 9]: > 32 mg/L
MIC [5, 9]: < 8 mg/L
MIC [6, 9]: > 32 mg/L
MIC ([7]; Acinetobacter baumannii): > 32 mg/L

CCC(Cc1ccc(-n2ccc(NC(=O)N3CCN(C(=O)C(C)(C)N)CC3)nc2=O)cc1)N1CC2CCC(N)CC2C1 (stereo not shown) [Compound 244]
IC50 ([1]; % inhibition @ 1 μM): ≥ 1 µM
IC50 ([2]; % inhibition @ 1 μM): 0.5 to 1 µM
E. coli + bicarb MIC [3, 10]: +++ (An MIC value (μg/mL) that is less than 8 μg/mL)
Pa MIC + bicarb [4, 10]: + (An MIC (μg/mL) value that is 32 μg/mL or greater)
Sa + bicarb MIC [5, 10]: +++ (An MIC value (μg/mL) that is less than 8 μg/mL)
Ef + bicarb MIC [6, 10]: ++ (An MIC value (μg/mL) that is 8 μg/mL or greater and less than 32 μg/mL)
Ab + bicarb MIC [7, 11]: + (An MIC (μg/mL) value that is 32 μg/mL or greater)

CC(Cc1ccc(-n2ccc(NC(=O)N3CCN(C(=O)C(C)(C)N)CC3)nc2=O)cc1)N1CCC2(CC(N)C2)C1 (stereo not shown) [Compound 225]
IC50 ([1]; % inhibition @ 1 μM): ≥ 1 µM
IC50 ([2]; % inhibition @ 1 μM): 0.5 to 1 µM
MIC [3, 10]: < 8 mg/L
MIC [4, 10]: > 32 mg/L
MIC [5, 10]: < 8 mg/L
Ef + bicarb MIC [6, 10]: +++ (An MIC value (μg/mL) that is less than 8 μg/mL)
MIC [7, 11]: > 32 mg/L

CC(COc1ccc(-n2ccc(NC(=O)N3CCN(C(=O)C(C)(C)N)CC3)nc2=O)cc1)N1CC2CC2(CN)C1 (stereo not shown) [Compound 189]
IC50 ([1]; % inhibition @ 1 μM): ≥ 1 µM
IC50 ([2]; % inhibition @ 1 μM): < 0.5 µM
MIC [3, 10]: < 8 mg/L
MIC [4, 10]: > 32 mg/L
MIC [5, 10]: < 8 mg/L
MIC [6, 10]: < 8 mg/L
MIC [7, 11]: > 32 mg/L

CC(C)(N)C(=O)N1CCN(C(=O)Nc2ccn(-c3ccc(CN4CCC5(N)CC5C4)cc3)c(=O)n2)CC1 (stereo not shown) [Compound 13]
IC50 [1, 8]: ≥ 1 µM
IC50 [2, 8]: 0.5 to 1 µM
MIC [3, 9]: < 8 mg/L
MIC [4, 9]: > 32 mg/L
MIC [5, 9]: < 8 mg/L
MIC [6, 9]: < 8 mg/L
MIC ([7]; Acinetobacter baumannii): > 32 mg/L
